{"source": "patent US11221326B2", "about": "(TOPPAN PRINTING CO., LTD., priority 2016, dated 2022)", "tested_on": "human lung cancer cell line NCI-H1975", "experiment": "Drug sensitivity by viable count analysis (CNT %), NCI-H1975 cells cultured with exosomes (Example 3)", "type": "cell-based", "conditions": "Gefitinib 10 μM, 72 hours", "method": "As a cell culture vessel, a Transwell cell culture insert (#3470 manufactured by Corning Incorporated) was used. The culture medium used was D-MEM (043-30085 manufactured by Wako Pure Chemical Corporation) containing 10 vol/vol % of bovine serum (EXO-FBS-50A-1 manufactured by System Biosciences, LLC), and 1 vol/vol % of penicillin-streptomycin (168-23191 manufactured by Wako Pure Chemical Corporation).\nDrugs were each assessed three times using a final concentration of 10 μM of Gefitinib.\nAs exosomes derived from drug resistant cell line, ones recovered from the culture supernatant of human lung cancer cell line A549 (ATCC No.: CCL-185)) by ultracentrifugation were used. Assessments were conducted with respect to two conditions of 0 exosomes (no addition of the exosomes derived from the drug resistant cell line), and 1×10^9 exosomes.\nIn viable count analysis, drug sensitivity was assessed, as in Example 1, by using a trypan blue solution and by counting cells in the fluorescence mode of a cell counter (Countess II) manufactured by Life Technologies Inc. In the drug sensitivity assessment,CNT(cell viability)%=(viable count with addition of drug)/(viable count with addition of no drug)×100(%) was used as an assessment value.\nAs a reference, cells with an addition of 1×10^9 exosomes derived from the serum of a healthy person were also assessed.\n(1) 2×10^4 NCI-H1975 cells were seeded in a Transwell cell culture insert.\n(2) An appropriate amount of culture medium was added to the Transwell cell culture insert, followed by culturing in a CO2 incubator (37° C., 5% CO2) for 24 hours.\n(1) An appropriate amount of culture medium was mixed with exosomes to prepare exosome medium solutions containing 0 exosomes (no addition of exosomes derived from a drug resistant cell line) and 1×10^9 exosomes.\n(2) Each solution was added to the Transwell cell culture insert, followed by culturing in a CO2 incubator (37° C., 5% CO2) for 24 hours.\n(1) An appropriate amount of the culture medium was mixed with a drug so as to have a final concentration of […]. […]"}
{"smiles": "COc1cc2ncnc(Nc3ccc(F)c(Cl)c3)c2cc1OCCCN1CCOCC1", "note": "[Gefitinib]", "values": [{"measurement": "CNT (%) Average value", "setting": "0 exosomes", "result": 59.9, "unit": "%"}, {"measurement": "CNT (%) Average value", "setting": "1 × 10^9 exosomes derived from A549", "result": 89.2, "unit": "%"}, {"measurement": "CNT (%) Average value", "setting": "1 × 10^9 exosomes derived from serum of healthy person", "result": 57.7, "unit": "%"}]}
